Test results as given in PubChem BioAssay AID1963983 (Molecular Pharmacology Branch, DTP, NCI, 2024).
“And” between values parts separate entries of the source, which are not always exact repeats. Identical values can stand only once.

System: 186277-243-T-J2-PDC multi-cell spheroid viability
Experiment: Anticancer human tumor 186277-243-T-J2-PDC patient-derived colon adenocarcinoma cell line growth inhibition [PI3K]
Settings: for viability, T/C: stronger effect = lower value
Method in brief: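 Targeted small molecules plus PI3K inhibitors, half-log dose series from Cmax (default top 10 microM), were applied to heterotypic spheroids of cancer cells with HUVEC and MSCs. Viability indicated growth inhibition.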

[1] = curve of first compound, second compound 0.00316 µM
[2] = curve of first compound, second compound 0.01 µM
[3] = curve of first compound, second compound 0.0316 µM
[4] = curve of first compound, second compound 0.1 µM
[5] = curve of first compound, second compound 0.316 µM
[6] = curve of first compound, second compound 1 µM
[7] = second compound 0.00316 µM, first compound 0.0316 µM
[8] = second compound 0.00316 µM, first compound 0.1 µM
[9] = second compound 0.00316 µM, first compound 0.316 µM
[10] = second compound 0.00316 µM, first compound 1 µM
[11] = second compound 0.00316 µM, first compound 3.16 µM
[12] = second compound 0.00316 µM, first compound 10 µM
[13] = second compound 0.01 µM, first compound 0.0316 µM
[14] = second compound 0.01 µM, first compound 0.1 µM
[15] = second compound 0.01 µM, first compound 0.316 µM
[16] = second compound 0.01 µM, first compound 1 µM
[17] = second compound 0.01 µM, first compound 3.16 µM
[18] = second compound 0.01 µM, first compound 10 µM
[19] = second compound 0.0316 µM, first compound 0.0316 µM
[20] = second compound 0.0316 µM, first compound 0.1 µM
[21] = second compound 0.0316 µM, first compound 0.316 µM
[22] = second compound 0.0316 µM, first compound 1 µM
[23] = second compound 0.0316 µM, first compound 3.16 µM
[24] = second compound 0.0316 µM, first compound 10 µM
[25] = second compound 0.1 µM, first compound 0.0316 µM
[26] = second compound 0.1 µM, first compound 0.1 µM
[27] = second compound 0.1 µM, first compound 0.316 µM
[28] = second compound 0.1 µM, first compound 1 µM
[29] = second compound 0.1 µM, first compound 3.16 µM
[30] = second compound 0.1 µM, first compound 10 µM
[31] = second compound 0.316 µM, first compound 0.0316 µM
[32] = second compound 0.316 µM, first compound 0.1 µM
[33] = second compound 0.316 µM, first compound 0.316 µM
[34] = second compound 0.316 µM, first compound 1 µM
[35] = second compound 0.316 µM, first compound 3.16 µM
[36] = second compound 0.316 µM, first compound 10 µM
[37] = second compound 1 µM, first compound 0.0316 µM
[38] = second compound 1 µM, first compound 0.1 µM
[39] = second compound 1 µM, first compound 0.316 µM
[40] = second compound 1 µM, first compound 1 µM
[41] = second compound 1 µM, first compound 3.16 µM
[42] = second compound 1 µM, first compound 10 µM
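Also: spheroids exposed to compounds for seven days before viability reading.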
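For viability, T/C in this document: 100% = DMSO vehicle control viability.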

SMILES: C#Cc1c(F)ccc2cc(O)cc(-c3ncc4c(N5CC6CCC(C5)N6)nc(OCC56CCCN5CC(F)C6)nc4c3F)c12 (stereo not given) + CC(Nc1ccc2c(c1)OCCn1cc(N3C(=O)OCC3C(F)F)nc1-2)C(N)=O
- IC50 [1]: 60.3 nM
- IC50 [2]: 58.9 nM
- IC50 [3]: < 31.6 nM
- IC50 [4]: < 31.6 nM
- IC50 [5]: < 31.6 nM
- IC50 [6]: < 31.6 nM
- viability, T/C [7]: 73.4%
- viability, T/C [8]: 31.6%
- viability, T/C [9]: 16.4%
- viability, T/C [10]: 16.3%
- viability, T/C [11]: 12.6%
- viability, T/C [12]: 8.99%
- viability, T/C [13]: 72.2%
- viability, T/C [14]: 31.1%
- viability, T/C [15]: 15.8%
- viability, T/C [16]: 11.8%
- viability, T/C [17]: 14%
- viability, T/C [18]: 9.85%
- viability, T/C [19]: 48.9%
- viability, T/C [20]: 23.6%
- viability, T/C [21]: 13.1%
- viability, T/C [22]: 14.6%
- viability, T/C [23]: 7.53%
- viability, T/C [24]: 7.66%
- viability, T/C [25]: 24.8%
- viability, T/C [26]: 9.05%
- viability, T/C [27]: 12.4%
- viability, T/C [28]: 7.52%
- viability, T/C [29]: 6.59%
- viability, T/C [30]: 4.7%
- viability, T/C [31]: 10.9%
- viability, T/C [32]: 7.34%
- viability, T/C [33]: 4.32%
- viability, T/C [34]: 4.02%
- viability, T/C [35]: 4.87%
- viability, T/C [36]: 2.61%
- viability, T/C [37]: 15.1%
- viability, T/C [38]: 8.27%
- viability, T/C [39]: 6.04%
- viability, T/C [40]: 3.18%
- viability, T/C [41]: 3.45%
- viability, T/C [42]: 1.57%

SMILES: CC(Cn1ccc(-c2ccc(C#N)c(Cl)c2)n1)NC(=O)c1cc(C(C)O)[nH]n1 (stereo not given)
- viability, T/C (compound 0.0316 µM): 95.5% [middle of 4 runs]
- viability, T/C (compound 0.1 µM): 99% [middle of 4 runs]
- viability, T/C (compound 0.316 µM): 101% [middle of 4 runs]
- viability, T/C (compound 1 µM): 102% (2×) and 82% and 108%
- viability, T/C (compound 3.16 µM): 96.6% [middle of 4 runs]
- viability, T/C (compound 10 µM): 97.3% [middle of 4 runs]
- IC50 (curve of compound): > 10000 nM

SMILES: C#Cc1c(F)ccc2cc(O)cc(-c3ncc4c(N5CC6CCC(C5)N6)nc(OCC56CCCN5CC(F)C6)nc4c3F)c12 (stereo not given)
- viability, T/C (compound 0.0316 µM): 90.4% [middle of 4 runs]
- viability, T/C (compound 0.1 µM): 40.8% [middle of 4 runs]
- viability, T/C (compound 0.316 µM): 25.4% [middle of 4 runs]
- viability, T/C (compound 1 µM): 15.6% [middle of 4 runs]
- viability, T/C (compound 3.16 µM): 14.8% [middle of 4 runs]
- viability, T/C (compound 10 µM): 11.7% [middle of 4 runs]
- IC50 (curve of compound): 80.8 nM [middle of 4 runs]

SMILES: Cn1cnc2c(F)c(Nc3ccc(Br)cc3Cl)c(C(=O)NOCCO)cc21 + CC(Nc1ccc2c(c1)OCCn1cc(N3C(=O)OCC3C(F)F)nc1-2)C(N)=O
- IC50 [1]: 115 nM
- IC50 [2]: 77.8 nM
- IC50 [3]: 39.4 nM
- IC50 [4]: 11.9 nM
- IC50 [5]: < 9.49 nM
- IC50 [6]: < 9.49 nM
- viability, T/C (second compound 0.00316 µM, first compound 0.00949 µM): 97.2%
- viability, T/C (second compound 0.00316 µM, first compound 0.03 µM): 83%
- viability, T/C (second compound 0.00316 µM, first compound 0.0949 µM): 47.7%
- viability, T/C (second compound 0.00316 µM, first compound 0.3 µM): 36.6%
- viability, T/C (second compound 0.00316 µM, first compound 0.949 µM): 14.2%
- viability, T/C (second compound 0.00316 µM, first compound 3 µM): 8.95%
- viability, T/C (second compound 0.01 µM, first compound 0.00949 µM): 101%
- viability, T/C (second compound 0.01 µM, first compound 0.03 µM): 79.8%
- viability, T/C (second compound 0.01 µM, first compound 0.0949 µM): 40.4%
- viability, T/C (second compound 0.01 µM, first compound 0.3 µM): 26.5%
- viability, T/C (second compound 0.01 µM, first compound 0.949 µM): 15.9%
- viability, T/C (second compound 0.01 µM, first compound 3 µM): 9.46%
- viability, T/C (second compound 0.0316 µM, first compound 0.00949 µM): 94%
- viability, T/C (second compound 0.0316 µM, first compound 0.03 µM): 54.5%
- viability, T/C (second compound 0.0316 µM, first compound 0.0949 µM): 32.8%
- viability, T/C (second compound 0.0316 µM, first compound 0.3 µM): 19.2%
- viability, T/C (second compound 0.0316 µM, first compound 0.949 µM): 10.6%
- viability, T/C (second compound 0.0316 µM, first compound 3 µM): 6.13%
- viability, T/C (second compound 0.1 µM, first compound 0.00949 µM): 53.9%
- viability, T/C (second compound 0.1 µM, first compound 0.03 µM): 33.8%
- viability, T/C (second compound 0.1 µM, first compound 0.0949 µM): 22.4%
- viability, T/C (second compound 0.1 µM, first compound 0.3 µM): 8.1%
- viability, T/C (second compound 0.1 µM, first compound 0.949 µM): 7.55%
- viability, T/C (second compound 0.1 µM, first compound 3 µM): 3.21%
- viability, T/C (second compound 0.316 µM, first compound 0.00949 µM): 30.7%
- viability, T/C (second compound 0.316 µM, first compound 0.03 µM): 16.4%
- viability, T/C (second compound 0.316 µM, first compound 0.0949 µM): 9.95%
- viability, T/C (second compound 0.316 µM, first compound 0.3 µM): 4.19%
- viability, T/C (second compound 0.316 µM, first compound 0.949 µM): 4.43%
- viability, T/C (second compound 0.316 µM, first compound 3 µM): 3.42%
- viability, T/C (second compound 1 µM, first compound 0.00949 µM): 20.1%
- viability, T/C (second compound 1 µM, first compound 0.03 µM): 10.1%
- viability, T/C (second compound 1 µM, first compound 0.0949 µM): 4.65%
- viability, T/C (second compound 1 µM, first compound 0.3 µM): 3.78%
- viability, T/C (second compound 1 µM, first compound 0.949 µM): 3.32%
- viability, T/C (second compound 1 µM, first compound 3 µM): 0.47%

SMILES: CC(C)NCC(C(=O)N1CCN(c2ncnc3c2C(C)CC3O)CC1)c1ccc(Cl)cc1 (stereo not given) + COc1c(OCCCN2CCOCC2)ccc2c3n(c(=NC(=O)c4cnc(N)nc4)nc12)CCN3
- IC50 [1]: 919 nM
- IC50 [2]: 551 nM
- IC50 [3]: 178 nM
- IC50 [4]: < 31.6 nM
- IC50 [5]: < 31.6 nM
- IC50 [6]: < 31.6 nM
- viability, T/C [7]: 93.9%
- viability, T/C [8]: 86.5%
- viability, T/C [9]: 73.1%
- viability, T/C [10]: 46.9%
- viability, T/C [11]: 30.9%
- viability, T/C [12]: 20.5%
- viability, T/C [13]: 102%
- viability, T/C [14]: 93.2%
- viability, T/C [15]: 68.8%
- viability, T/C [16]: 29.2%
- viability, T/C [17]: 20.6%
- viability, T/C [18]: 12.2%
- viability, T/C [19]: 69.4%
- viability, T/C [20]: 62.7%
- viability, T/C [21]: 37.1%
- viability, T/C [22]: 23.2%
- viability, T/C [23]: 15.2%
- viability, T/C [24]: 10.8%
- viability, T/C [25]: 21.8%
- viability, T/C [26]: 16.4%
- viability, T/C [27]: 11%
- viability, T/C [28]: 7.77%
- viability, T/C [29]: 7.84%
- viability, T/C [30]: 5.5%
- viability, T/C [31]: 5.04%
- viability, T/C [32]: 3.98%
- viability, T/C [33]: 5.15%
- viability, T/C [34]: 10.1%
- viability, T/C [35]: 6.04%
- viability, T/C [36]: 8.76%
- viability, T/C [37]: 1.65%
- viability, T/C [38]: 3.37%
- viability, T/C [39]: 1.85%
- viability, T/C [40]: 2.98%
- viability, T/C [41]: 2.47%
- viability, T/C [42]: 2.26%
